Experimental data: patent publication US20260028326A1, “COMPOUND BASED ON ISOINDOLINE-SUBSTITUTED GLUTARIMIDE BACKBONE AND USE THEREOF” (GLUETACS THERAPEUTICS (SHANGHAI) CO., LTD., priority 2022, published 2026)

Assays:
[1] = biological target: human Cereblon WT GST-tagged protein (Homo sapiens (Human), UniProt Q96SW2); assay: CRBN-binding affinity, HTRF (CEREBLON BINDING kit)
Procedure, shortened: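 HTRF competition readout: compounds compete with a thalidomide-Re conjugate for GST-tagged wild-type human CRBN detected via Eu-labelled anti-GST antibody. Inhibition rate derived relative to protein-free blank wells.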

IKZF1 protein = IKZF1 protein (Homo sapiens (Human), UniProt Q13422+Q96SW2); assay: Western-blot assay of substrate protein degradation in hPBMC, IKZF1; assay type: cell-based; settings: for residual substrate protein level, IKZF1: hPBMC cells, compound 500 nM, 24 hours, Western blot
Sequence of IKZF1 protein (Q13422 whole entry): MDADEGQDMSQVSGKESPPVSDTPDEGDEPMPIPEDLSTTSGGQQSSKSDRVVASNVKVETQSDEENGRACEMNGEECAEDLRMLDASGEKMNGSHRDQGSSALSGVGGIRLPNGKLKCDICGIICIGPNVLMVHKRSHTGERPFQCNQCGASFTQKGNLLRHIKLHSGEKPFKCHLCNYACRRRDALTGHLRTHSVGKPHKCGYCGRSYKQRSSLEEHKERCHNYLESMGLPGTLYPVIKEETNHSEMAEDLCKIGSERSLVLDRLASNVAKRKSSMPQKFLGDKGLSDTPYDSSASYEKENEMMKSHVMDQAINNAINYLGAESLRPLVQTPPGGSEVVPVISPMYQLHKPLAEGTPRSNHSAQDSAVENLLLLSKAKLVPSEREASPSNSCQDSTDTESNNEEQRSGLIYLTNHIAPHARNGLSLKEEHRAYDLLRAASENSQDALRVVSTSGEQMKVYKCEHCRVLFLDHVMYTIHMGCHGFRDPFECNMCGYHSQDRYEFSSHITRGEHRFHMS
Sequence of IKZF1 protein (Q96SW2 whole entry): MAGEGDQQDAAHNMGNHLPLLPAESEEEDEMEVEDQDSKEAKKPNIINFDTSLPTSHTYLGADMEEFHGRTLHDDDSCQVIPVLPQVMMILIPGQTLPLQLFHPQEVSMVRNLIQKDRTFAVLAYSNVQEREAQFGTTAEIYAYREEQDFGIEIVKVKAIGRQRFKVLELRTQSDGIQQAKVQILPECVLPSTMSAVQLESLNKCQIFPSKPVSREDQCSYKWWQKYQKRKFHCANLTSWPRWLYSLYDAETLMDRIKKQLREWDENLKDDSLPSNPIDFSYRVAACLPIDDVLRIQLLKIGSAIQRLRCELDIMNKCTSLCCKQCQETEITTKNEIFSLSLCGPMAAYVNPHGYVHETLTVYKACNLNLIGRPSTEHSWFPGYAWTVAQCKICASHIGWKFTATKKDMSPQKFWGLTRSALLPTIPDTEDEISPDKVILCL
Sequence of IKZF1 protein (Q16531 whole entry partner): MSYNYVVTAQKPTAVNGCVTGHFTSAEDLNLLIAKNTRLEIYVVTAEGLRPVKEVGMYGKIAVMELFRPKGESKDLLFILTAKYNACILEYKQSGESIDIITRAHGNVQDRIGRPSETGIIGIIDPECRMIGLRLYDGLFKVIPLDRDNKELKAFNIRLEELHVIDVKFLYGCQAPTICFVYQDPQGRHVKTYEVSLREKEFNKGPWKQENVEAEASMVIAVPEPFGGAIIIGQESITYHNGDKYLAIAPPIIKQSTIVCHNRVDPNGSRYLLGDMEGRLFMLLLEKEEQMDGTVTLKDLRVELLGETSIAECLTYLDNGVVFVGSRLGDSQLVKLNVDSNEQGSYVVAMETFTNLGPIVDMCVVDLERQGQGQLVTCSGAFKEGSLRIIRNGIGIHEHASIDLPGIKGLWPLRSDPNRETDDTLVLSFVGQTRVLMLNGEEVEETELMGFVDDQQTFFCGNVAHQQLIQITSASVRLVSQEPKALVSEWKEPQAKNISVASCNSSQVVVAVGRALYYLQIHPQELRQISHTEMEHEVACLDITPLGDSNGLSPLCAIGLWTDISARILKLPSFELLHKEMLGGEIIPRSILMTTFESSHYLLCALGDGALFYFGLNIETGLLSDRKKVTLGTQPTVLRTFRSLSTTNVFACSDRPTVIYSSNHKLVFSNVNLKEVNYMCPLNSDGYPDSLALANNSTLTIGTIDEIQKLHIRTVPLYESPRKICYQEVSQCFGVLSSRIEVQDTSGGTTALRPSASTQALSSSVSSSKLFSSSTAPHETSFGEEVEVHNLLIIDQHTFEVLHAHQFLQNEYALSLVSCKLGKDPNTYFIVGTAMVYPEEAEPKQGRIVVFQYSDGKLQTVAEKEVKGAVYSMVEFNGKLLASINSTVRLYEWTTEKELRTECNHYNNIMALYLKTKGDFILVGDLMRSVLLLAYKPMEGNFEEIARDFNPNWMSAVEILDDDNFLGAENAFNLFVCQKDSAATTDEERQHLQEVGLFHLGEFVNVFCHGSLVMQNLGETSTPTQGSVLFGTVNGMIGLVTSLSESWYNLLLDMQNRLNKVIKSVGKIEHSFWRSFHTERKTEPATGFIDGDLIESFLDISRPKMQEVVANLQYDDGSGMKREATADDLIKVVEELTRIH
Experimental: (§1) After treating the cells with the compounds for 24 hours, the cells were collected and lysed using RIPA protein lysate containing phosphatase inhibitors. The lysate was then placed on ice for 30-60 minutes and centrifuged. The supernatant was aspirated as the extracted total cell protein. The protein concentration of the supernatant was determined using the conventional BCA (Bicinchoninic Acid) assay. The supernatant was then mixed with 4×SDS sample loading buffer, denatured at 95° C. for 5 minutes, and then subjected to SDS-PAGE electrophoresis on a polyacrylamide gel, followed by transfer to a nitrocellulose membrane (NC membrane). The membrane was blocked with blocking buffer at room temperature for 1-2 hours, and then antibody incubation and detection were carried out according to the antibody instructions provided by Cell Signaling Technology.
(§2) Half-Maximal Degradation Concentration value (the drug concentration required for degrading proteins by 50%, abbreviated as DC50) reads method: comparing the gray values of the Western blotting bands for the drug treatment with the gray values of the Western blotting band for the DMSO control, and reading the drug concentration range corresponding to the gray value of the Western blotting bands for the drug treatment which is equal to half of the gray value of the Western blotting band for the DMSO control.
(§3) DC50 value could also be calculated as follows: using software ImageJ to quantify the gray values of the Western blotting bands for the drug treatment, fitting the relationship curve between drug concentrations and gray values, and from the fitted curve, calculating the drug concentration corresponding to half of the gray value of the Western blotting band for the DMSO control.

IKZF3 protein = IKZF3 protein (Homo sapiens (Human), UniProt Q96SW2+Q9UKT9); assay: Western-blot assay of substrate protein degradation in hPBMC, IKZF3; assay type: cell-based; settings: for residual substrate protein level, IKZF3: hPBMC cells, compound 500 nM, 24 hours, Western blot
Sequence of IKZF3 protein (Q9UKT9 whole entry): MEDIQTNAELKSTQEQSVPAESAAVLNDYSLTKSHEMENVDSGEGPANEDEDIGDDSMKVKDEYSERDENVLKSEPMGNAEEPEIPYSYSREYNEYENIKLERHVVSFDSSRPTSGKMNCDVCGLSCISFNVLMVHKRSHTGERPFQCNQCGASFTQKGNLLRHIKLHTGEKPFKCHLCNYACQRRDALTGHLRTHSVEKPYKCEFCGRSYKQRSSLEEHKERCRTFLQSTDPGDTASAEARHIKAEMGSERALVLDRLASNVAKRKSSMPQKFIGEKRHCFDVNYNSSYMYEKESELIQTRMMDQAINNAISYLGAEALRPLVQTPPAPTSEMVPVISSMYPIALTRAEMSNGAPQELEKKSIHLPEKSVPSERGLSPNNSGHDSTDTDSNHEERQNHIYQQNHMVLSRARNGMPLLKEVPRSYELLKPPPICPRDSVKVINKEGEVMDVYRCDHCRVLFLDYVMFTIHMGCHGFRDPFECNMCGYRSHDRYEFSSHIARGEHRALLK
Sequence of IKZF3 protein (Q96SW2 whole entry): as the sequence (Q96SW2 whole entry) above
Sequence of IKZF3 protein (Q16531 whole entry partner): as the sequence (Q16531 whole entry partner) above
Experimental: as §1, §2, §3

GSPT1 protein = GSPT1 protein (Homo sapiens (Human), UniProt P15170+Q96SW2); assay: Western-blot assay of substrate protein degradation in hPBMC, GSPT1; assay type: cell-based; settings: for residual substrate protein level, GSPT1: hPBMC cells, compound 500 nM, 24 hours, Western blot
Sequence of GSPT1 protein (P15170 whole entry): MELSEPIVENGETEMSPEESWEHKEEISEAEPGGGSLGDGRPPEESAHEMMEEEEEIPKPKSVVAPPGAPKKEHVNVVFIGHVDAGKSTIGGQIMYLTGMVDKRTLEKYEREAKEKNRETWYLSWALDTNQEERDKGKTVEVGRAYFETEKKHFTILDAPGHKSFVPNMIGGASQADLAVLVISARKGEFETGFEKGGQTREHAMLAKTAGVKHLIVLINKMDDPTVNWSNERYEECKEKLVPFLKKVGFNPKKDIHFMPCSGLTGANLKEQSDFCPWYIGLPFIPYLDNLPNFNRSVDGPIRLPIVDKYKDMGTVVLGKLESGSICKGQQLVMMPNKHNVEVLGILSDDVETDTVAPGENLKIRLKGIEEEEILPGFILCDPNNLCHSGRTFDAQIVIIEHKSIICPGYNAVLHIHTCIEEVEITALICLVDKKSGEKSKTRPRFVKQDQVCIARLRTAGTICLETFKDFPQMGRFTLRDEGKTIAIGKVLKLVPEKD
Sequence of GSPT1 protein (Q96SW2 whole entry): as the sequence (Q96SW2 whole entry) above
Sequence of GSPT1 protein (Q16531 whole entry partner): as the sequence (Q16531 whole entry partner) above
Experimental: as §1, §2, §3

[2] = hPBMC, 24 h, serially diluted 0.03-1000 nM

Sequence of human Cereblon WT GST-tagged protein (Q96SW2 whole entry): as the sequence (Q96SW2 whole entry) above

IC50 [1] [nM]	concentration at which significant degradation effects on IKZF1 protein are exhibited (FIG. 1) (IKZF1 protein; [2])	concentration at which significant degradation effects on IKZF3 protein are exhibited (FIG. 1) (IKZF3 protein; [2])	concentration at which significant degradation effects on GSPT1 protein are exhibited (FIG. 1) (GSPT1 protein; [2])	Structure (SMILES)	residual substrate protein level, IKZF1 (IKZF1 protein)	residual substrate protein level, IKZF3 (IKZF3 protein)	residual substrate protein level, GSPT1 (GSPT1 protein)
980	–	–	–	CC1(C)CCC(C(=O)N2CCCN(Cc3ccc4c(c3)CN(C3CCC(=O)NC3=O)C4=O)CC2)=C(c2ccc(Cl)cc2)C1 (stereo not shown) [GT-05680, 3-(5-((4-(4′-chloro-5,5-dimethyl-3,4,5,6-tetrahydro-[1,1′-biphenyl]-2-carbonyl)-1,4-diazepan-1-yl)methyl)-1-oxoisoindolin-2-yl)piperidine-2,6-dione]	B (B represents a residual substrate protein level of >50%)	A (A represents a residual substrate protein level of <50%)	B (B represents a residual substrate protein level of >50%)
1610	–	–	–	CC1(C)CCC(CN2CCN(Cc3ccc4c(c3)C(=O)N(C3CCC(=O)NC3=O)C4=O)CC2)=C(c2ccc(F)cc2)C1 (stereo not shown) [GT-05395, 2-(2,6-dioxopiperidin-3-yl)-5-((4-((4′-fluoro-5,5-dimethyl-3,4,5,6-tetrahydro-[1,1′-biphenyl]-2-yl)methyl)piperazin-1-yl)methyl)isoindoline-1,3-dione]	B (B represents a residual substrate protein level of >50%)	A (A represents a residual substrate protein level of <50%)	A (A represents a residual substrate protein level of <50%)
460	–	–	–	O=C1CCC(N2Cc3cc(CN4CCN(Cc5ccncc5-c5ccc(Cl)cc5)CC4)ccc3C2=O)C(=O)N1 (stereo not shown) [GT-04275, 3-(5-((4-((3-(4-chlorophenyl)pyridin-4-yl)methyl)piperazin-1-yl)methyl)-1-oxoisoindolin-2-yl)piperidine-2,6-dione]	A (A represents a residual substrate protein level of <50%)	A (A represents a residual substrate protein level of <50%)	A (A represents a residual substrate protein level of <50%)
760	–	–	–	CC1(C)CCC(C(=O)N2CCN(Cc3ccc4c(c3)CN(C3CCC(=O)NC3=O)C4=O)C(C(F)(F)F)C2)=C(c2ccc(Cl)cc2)C1 (stereo not shown) [GT-05845, 3-(5-((4-(4′-chloro-5,5-dimethyl-3,4,5,6-tetrahydro-[1,1′-biphenyl]-2-carbonyl)-2-(trifluoromethyl)piperazin-1-yl)methyl)-1-oxoisoindolin-2-yl)piperidine-2,6-dione]	B (B represents a residual substrate protein level of >50%)	A (A represents a residual substrate protein level of <50%)	B (B represents a residual substrate protein level of >50%)
620	–	–	–	CC1(C)CCC(CN2CC3(C2)CN(Cc2ccc4c(c2)CN(C2CCC(=O)NC2=O)C4=O)C3)=C(c2ccc(F)cc2)C1 (stereo not shown) [GT-05670, 3-(5-((6-((4′-fluoro-5,5-dimethyl-3,4,5,6-tetrahydro-[1,1′-biphenyl]-2-yl)methyl)-2,6-diazaspiro[3.3]heptan-2-yl)methyl)-1-oxoisoindolin-2-yl)piperidine-2,6-dione]	A (A represents a residual substrate protein level of <50%)	A (A represents a residual substrate protein level of <50%)	A (A represents a residual substrate protein level of <50%)
720	–	–	–	O=C1CCC(N2Cc3cc(CN4CCN(Cc5ccccc5-c5ccc(F)cc5)CC4)cc(F)c3C2=O)C(=O)N1 (stereo not shown) [GT-05604, 3-(7-fluoro-5-((4-((4′-fluoro-[1,1′-biphenyl]-2-yl)methyl)piperazin-1-yl)methyl)-1-oxoisoindolin-2-yl)piperidine-2,6-dione]	B (B represents a residual substrate protein level of >50%)	B (B represents a residual substrate protein level of >50%)	A (A represents a residual substrate protein level of <50%)
940	–	–	–	CC1(C)CCC(CN2CCN(Cc3ccc4c(c3)CN(C3CCC(=O)NC3=O)C4=O)C(C(F)(F)F)C2)=C(c2ccc(F)cc2)C1 (stereo not shown) [GT-05846, 3-(5-((4-((4′-fluoro-5,5-dimethyl-3,4,5,6-tetrahydro-[1,1′-biphenyl]-2-yl)methyl)-2-(trifluoromethyl)piperazin-1-yl)methyl)-1-oxoisoindolin-2-yl)piperidine-2,6-dione]	B (B represents a residual substrate protein level of >50%)	B (B represents a residual substrate protein level of >50%)	A (A represents a residual substrate protein level of <50%)
1160	below 30 nM	below 30 nM	below 30 nM	O=C1CCC(N2Cc3cc(CN4CCN(C(=O)c5ccccc5-c5ccc(F)cc5)CC4)ccc3C2=O)C(=O)N1 (stereo not shown) [GT-04194, 3-(5-((4-(4′-fluoro-[1,1′-biphenyl]-2-carbonyl)piperazin-1-yl)methyl)-1-oxoisoindolin-2-yl)piperidine-2,6-dione]	B (B represents a residual substrate protein level of >50%)	A (A represents a residual substrate protein level of <50%)	A (A represents a residual substrate protein level of <50%)
1070	–	–	–	O=C1CCC(N2Cc3cc(C(=O)N4CCN(Cc5ccccc5-c5ccc(Cl)cc5)CC4)ccc3C2=O)C(=O)N1 (stereo not shown) [GT-05455, 3-(5-(4-((4′-chloro-[1,1′-biphenyl]-2-yl)methyl)piperazine-1-carbonyl)-1-oxoisoindolin-2-yl)piperidine-2,6-dione]	B (B represents a residual substrate protein level of >50%)	B (B represents a residual substrate protein level of >50%)	A (A represents a residual substrate protein level of <50%)
–	–	–	–	CC1(C)CCC(CN2CC3CCC2CN3C(=O)c2ccc3c(c2)C(=O)N(C2CCC(=O)NC2=O)C3=O)=C(c2ccc(Cl)cc2)C1 (stereo not shown) [GT-05414, 5-(5-((4′-chloro-5,5-dimethyl-3,4,5,6-tetrahydro-[1,1′-biphenyl]-2-yl)methyl)-2,5-diazabicyclo[2.2.2]octane-2-carbonyl)-2-(2,6-dioxopiperidin-3-yl)isoindoline-1,3-dione]	B (B represents a residual substrate protein level of >50%)	A (A represents a residual substrate protein level of <50%)	B (B represents a residual substrate protein level of >50%)
–	–	–	–	O=C1CCC(N2C(=O)c3ccc(C(=O)N4CCN(Cc5ccc(-c6ccc(Cl)cc6)cc5)CC4)cc3C2=O)C(=O)N1 (stereo not shown) [GT-05600, 5-(4-((4′-chloro-[1,1′-biphenyl]-4-yl)methyl)piperazine-1-carbonyl)-2-(2,6-dioxopiperidin-3-yl)isoindoline-1,3-dione]	B (B represents a residual substrate protein level of >50%)	B (B represents a residual substrate protein level of >50%)	A (A represents a residual substrate protein level of <50%)
–	–	–	–	O=C1CCC(N2C(=O)c3ccc(CN4CCN(Cc5cccc(-c6ccc(Cl)cc6)c5)CC4)cc3C2=O)C(=O)N1 (stereo not shown) [GT-05630, 5-((4-((4′-chloro-[1,1′-biphenyl]-3-yl)methyl)piperazin-1-yl)methyl)-2-(2,6-dioxopiperidin-3-yl)isoindoline-1,3-dione]	B (B represents a residual substrate protein level of >50%)	A (A represents a residual substrate protein level of <50%)	B (B represents a residual substrate protein level of >50%)

Structure (SMILES)	IC50 [1] [nM]	concentration at which significant degradation effects on IKZF1 protein are exhibited (FIG. 1) (IKZF1 protein; [2])	concentration at which significant degradation effects on IKZF3 protein are exhibited (FIG. 1) (IKZF3 protein; [2])	concentration at which significant degradation effects on GSPT1 protein are exhibited (FIG. 1) (GSPT1 protein; [2])	residual substrate protein level, IKZF1 (IKZF1 protein)	residual substrate protein level, IKZF3 (IKZF3 protein)	residual substrate protein level, GSPT1 (GSPT1 protein)
CC1(C)CCC(CN2CC3CCC(C2)N3Cc2ccc3c(c2F)CN(C2CCC(=O)NC2=O)C3=O)=C(c2ccc(Cl)cc2)C1 (stereo not shown) [GT-03890, 3-(5-((3-((4′-chloro-5,5-dimethyl-3,4,5,6-tetrahydro-[1,1′-biphenyl]-2-yl)methyl)-3,8-diazabicyclo[3.2.1]octan-8-yl)methyl)-4-fluoro-1-oxoisoindolin-2-yl)piperidine-2,6-dione]	510	–	–	–	B (B represents a residual substrate protein level of >50%)	A (A represents a residual substrate protein level of <50%)	A (A represents a residual substrate protein level of <50%)
